Source: patent US20250228239A1, “MOLECULES HAVING PESTICIDAL UTILITY, AND INTERMEDIATES, COMPOSITIONS, AND PROCESSES, RELATED THERETO” (priority 2024, published 2025)

Legend:
[1] = system: Beet Armyworm (Spodoptera exigua, LAPHEG); assay: Bioassays on Beet Armyworm (BAW), 128-well diet tray assay; type: in vivo; conditions: Spodoptera exigua; Beet Armyworm, Table ABC / ABC-DP rating; read-out: BAW rating
In short: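 Eight diet wells per compound were treated at 50 μg/cm^2 (acetone-water 90:10), dried, then infested with 1–5 second-instar larvae each. After five to seven days at 25 °C under 14:10 photoperiod, mortality was scored and averaged across wells.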

[2] = system: Cabbage Looper (Trichoplusia ni, TRIPNI); assay: Bioassays on Cabbage Looper (CL), 128-well diet tray assay; type: in vivo; conditions: Trichoplusia ni; Cabbage Looper, Table ABC / ABC-DP rating; read-out: CL rating
In short: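 Each of eight wells receives artificial diet treated at 50 μg/cm^2 with the test molecule, then one to five second-instar larvae. Incubation runs five to seven days at 25° C with a 14:10 light-dark cycle under vented covers. Mortality is scored per well as a percentage and averaged.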

| SMILES | pest or weed control at 50 µg/cm2 [1] [%] | pest or weed control at 50 µg/cm2 [2] [%] |
| --- | --- | --- |
| O=C(Nc1c(F)ccc(NC(=O)C(F)(F)C(F)(F)C(F)(F)F)c1F)c1cc(NC(=O)[C@H]2[C@H](c3cc(Cl)c(Cl)c(Cl)c3)C2(Cl)Cl)cc(F)c1F [F1779, 5-((1R,3R)-2,2-Dichloro-3-(3,4,5-trichlorophenyl)cyclopropane-1-carboxamido)-N-(2,6-difluoro-3-(2,2,3,3,4,4,4-heptafluorobutanamido)phenyl)-2,3-difluorobenzamide] | 50 to 100 | 50 to 100 |
| O=C(Nc1ccc(F)c(NC(=O)C2(F)OC(F)(F)C(F)(F)C(F)(F)C2(F)F)c1F)c1cc(NC(=O)[C@H]2[C@H](c3ccc(F)c(C(F)(F)F)c3)C2(Cl)Cl)ccc1Cl (stereo partly drawn) [F1783, N-(3-(2-Chloro-5-((1R,3R)-2,2-dichloro-3-(4-fluoro-3-(trifluoromethyl)phenyl)cyclopropane-1-carboxamido)benzamido)-2,6-difluorophenyl)-2,3,3,4,4,5,5,6,6-nonafluorotetrahydro-2H-pyran-2-carboxamide] | 50 to 100 | 50 to 100 |
| C#CCNc1c(F)ccc(NC(=O)c2cc(NC(=O)[C@H]3[C@H](c4ccc(F)c(C(F)(F)F)c4)C3(Cl)Cl)ccc2Cl)c1F [F1807, 2-Chloro-5-((1R,3R)-2,2-dichloro-3-(4-fluoro-3-(trifluoromethyl)phenyl)cyclopropane-1-carboxamido)-N-(2,4-difluoro-3-(prop-2-yn-1-ylamino)phenyl)benzamide] | 50 to 100 | 50 to 100 |
| C#CCN(C(=O)COC(F)(F)F)c1c(F)ccc(NC(=O)c2cc(NC(=O)[C@H]3[C@H](c4ccc(F)c(C(F)(F)F)c4)C3(Cl)Cl)ccc2Cl)c1F [F1811, 2-Chloro-5-((1R,3R)-2,2-dichloro-3-(4-fluoro-3-(trifluoromethyl)phenyl)cyclopropane-1-carboxamido)-N-(2,4-difluoro-3-(N-(prop-2-yn-1-yl)-2-(trifluoromethoxy)acetamido)phenyl)benzamide] | 50 to 100 | 50 to 100 |
| O=C(Nc1c(F)ccc(NC(=O)c2cc(NC(=O)[C@H]3[C@H](c4ccc(F)c(C(F)(F)F)c4)C3(Cl)Cl)ccc2Cl)c1F)c1ccno1 [F1816, N-(3-(2-Chloro-5-((1R,3R)-2,2-dichloro-3-(4-fluoro-3-(trifluoromethyl)phenyl)cyclopropane-1-carboxamido)benzamido)-2,6-difluorophenyl)isoxazole-5-carboxamide] | 50 to 100 | 50 to 100 |
| O=C(Nc1c(F)ccc(NC(=O)c2cc(NC(=O)[C@H]3[C@H](c4ccc(F)c(C(F)(F)F)c4)C3(Cl)Cl)ccc2Cl)c1F)c1ccns1 [F1817, N-(3-(2-Chloro-5-((1R,3R)-2,2-dichloro-3-(4-fluoro-3-(trifluoromethyl)phenyl)cyclopropane-1-carboxamido)benzamido)-2,6-difluorophenyl)isothiazole-5-carboxamide] | 50 to 100 | 50 to 100 |
| O=C(Nc1c(F)ccc(NC(=O)c2cc(NC(=O)[C@H]3[C@H](c4ccc(F)c(C(F)(F)F)c4)C3(Cl)Cl)ccc2Cl)c1F)c1cnns1 [F1820, N-(3-(2-Chloro-5-((1R,3R)-2,2-dichloro-3-(4-fluoro-3-(trifluoromethyl)phenyl)cyclopropane-1-carboxamido)benzamido)-2,6-difluorophenyl)-1,2,3-thiadiazole-5-carboxamide] | 50 to 100 | 50 to 100 |
| O=C(Nc1ccc(F)c(NC(=O)C2(COC(F)(F)F)CC2)c1F)c1cc(NC(=O)[C@H]2[C@H](c3ccc(F)c(C(F)(F)F)c3)C2(Cl)Cl)ccc1Cl [F1821, 2-Chloro-5-((1R,3R)-2,2-dichloro-3-(4-fluoro-3-(trifluoromethyl)phenyl)cyclopropane-1-carboxamido)-N-(2,4-difluoro-3-(1-((trifluoromethoxy)methyl)cyclopropane-1-carboxamido)phenyl)benzamide] | 50 to 100 | 50 to 100 |
| O=C(Nc1c(F)ccc(NC(=O)c2cc(NC(=O)[C@H]3[C@H](c4ccc(F)c(C(F)(F)F)c4)C3(Cl)Cl)ccc2Cl)c1F)c1cc(C(F)(F)F)no1 [F1824, N-(3-(2-Chloro-5-((1R,3R)-2,2-dichloro-3-(4-fluoro-3-(trifluoromethyl)phenyl)cyclopropane-1-carboxamido)benzamido)-2,6-difluorophenyl)-3-(trifluoromethyl)isoxazole-5-carboxamide] | 50 to 100 | 50 to 100 |
| CC(OC(F)F)C(=O)Nc1c(F)ccc(NC(=O)c2cc(NC(=O)[C@H]3[C@H](c4ccc(F)c(C(F)(F)F)c4)C3(Cl)Cl)ccc2Cl)c1F (stereo partly drawn) [F1828, 2-Chloro-5-((1R,3R)-2,2-dichloro-3-(4-fluoro-3-(trifluoromethyl)phenyl)cyclopropane-1-carboxamido)-N-(3-(2-(difluoromethoxy)propanamido)-2,4-difluorophenyl)benzamide] | 50 to 100 | 50 to 100 |
| CC(C(=O)Nc1c(F)ccc(NC(=O)c2cc(NC(=O)[C@H]3[C@H](c4ccc(F)c(C(F)(F)F)c4)C3(Cl)Cl)ccc2Cl)c1F)C(F)(F)F (stereo partly drawn) [F1832, 2-Chloro-5-((1R,3R)-2,2-dichloro-3-(4-fluoro-3-(trifluoromethyl)phenyl)cyclopropane-1-carboxamido)-N-(2,4-difluoro-3-(3,3,3-trifluoro-2-methylpropanamido)phenyl)benzamide] | 50 to 100 | 50 to 100 |
| O=C(CC(C(F)(F)F)C(F)(F)F)Nc1c(F)ccc(NC(=O)c2cc(NC(=O)[C@H]3[C@H](c4ccc(F)c(C(F)(F)F)c4)C3(Cl)Cl)ccc2Cl)c1F [F1833, 2-Chloro-5-((1R,3R)-2,2-dichloro-3-(4-fluoro-3-(trifluoromethyl)phenyl)cyclopropane-1-carboxamido)-N-(2,4-difluoro-3-(4,4,4-trifluoro-3-(trifluoromethyl)butanamido)phenyl)benzamide] | 50 to 100 | 50 to 100 |
| O=C(Nc1ccc(F)c(NC(=O)C(F)(F)C(F)(F)OC(F)(F)F)c1F)c1cc(NC(=O)[C@H]2[C@H](c3ccc(F)c(C(F)(F)F)c3)C2(Cl)Cl)ccc1Cl [F1834, 2-Chloro-5-((1R,3R)-2,2-dichloro-3-(4-fluoro-3-(trifluoromethyl)phenyl)cyclopropane-1-carboxamido)-N-(2,4-difluoro-3-(2,2,3,3-tetrafluoro-3-(trifluoromethoxy)propanamido)phenyl)benzamide] | 50 to 100 | 50 to 100 |
| CC(CC(F)(F)F)C(=O)Nc1c(F)ccc(NC(=O)c2cc(NC(=O)[C@H]3[C@H](c4ccc(F)c(C(F)(F)F)c4)C3(Cl)Cl)ccc2Cl)c1F (stereo partly drawn) [F1835, 2-Chloro-5-((1R,3R)-2,2-dichloro-3-(4-fluoro-3-(trifluoromethyl)phenyl)cyclopropane-1-carboxamido)-N-(2,4-difluoro-3-(4,4,4-trifluoro-2-methylbutanamido)phenyl)benzamide] | 50 to 100 | 50 to 100 |
